Reference: patent US6673827B1, “Methods of treating fungal infections with inhibitors of NAD synthetase enzyme” (priority 1999, dated 2004)
Like-named read-outs stand apart in the source and are kept apart here.

Legend:
[1] = biological target: T1, NAD synthetase (recombinant protein from B. subtilis; purified) (Bacillus subtilis, UniProt P08164); experiment: NAD synthetase enzyme inhibition assay (coupled enzymatic assay, HTS); assay type: biochemical
T1 construct: made in house

[2] = test system: Candida albicans (ATCC 10231); experiment: Minimum Inhibitory Concentration (MIC) against yeast, broth dilution; assay type: cell-based; details: Candida albicans, ATCC10231; 37° C., 20 hours, mean of duplicate; read-out: MIC Candida albicans (ATCC 10231)
[3] = test system: Candida tropicalis (ATCC 28707-amphotericin B-resistant); experiment: as above; assay type: cell-based; details: Candida tropicalis, ATCC28707, 37° C., 20 hours, mean of duplicate
[4] = test system: Candida tropicalis (ATCC 750); experiment: as above; assay type: cell-based; details: Candida tropicalis, ATCC750; 37° C., 20 hours, mean of duplicate
[5] = In vivo toxicity: intraperitoneal (IP) dosage in mice resulting in 50% lethality (LD50); details: mouse, in vivo; male CD-1 mice, single IP dose, observed 14 days
[6] = test system: Candida tropicalis ATCC 750; experiment: In vitro study of inhibition of growth and lethality against yeast (MIC/MLC susceptibility test), isolate A; assay type: cell-based; details: Candida tropicalis, 2nd pair of lines, isolate assigned by line order
[7] = test system: Candida tropicalis ATCC 28707; experiment: In vitro study of inhibition of growth and lethality against yeast (MIC/MLC susceptibility test), isolate B; assay type: cell-based; details: Candida tropicalis, 1st pair of lines, isolate assigned by line order
[8] = test system: Candida albicans KJP-000531594; experiment: In vitro study of inhibition of growth and lethality against yeast (MIC/MLC susceptibility test), isolate C; assay type: cell-based; details: Candida albicans, Candida albicans, 1st pair of lines
[9] = test system: Candida albicans LH-000664533; experiment: In vitro study of inhibition of growth and lethality against yeast (MIC/MLC susceptibility test), isolate D; assay type: cell-based; details: Candida albicans, Candida albicans, 2nd pair of lines, isolate assigned by line order
[10] = test system: Torulopsis glabrata JHC-BC9951635; experiment: In vitro study of inhibition of growth and lethality against yeast (MIC/MLC susceptibility test), isolate E; assay type: cell-based; details: Torulopsis glabrata, 2nd pair of lines, isolate assigned by line order
[11] = test system: Torulopsis glabrata ERH-BC9938274; experiment: In vitro study of inhibition of growth and lethality against yeast (MIC/MLC susceptibility test), isolate F; assay type: cell-based; details: Nakaseomyces glabratus, Torulopsis glabrata, 1st pair of lines, isolate assigned by line order
[12] = test system: Cryptococcus neoformans DLB-1027594CNC; experiment: In vitro study of inhibition of growth and lethality against yeast (MIC/MLC susceptibility test), isolate G; assay type: cell-based; details: Cryptococcus neoformans, 1st pair of lines, isolate assigned by line order
[13] = test system: Cryptococcus neoformans SLP-BC0012854; experiment: In vitro study of inhibition of growth and lethality against yeast (MIC/MLC susceptibility test), isolate H; assay type: cell-based; details: Cryptococcus neoformans, 2nd pair of lines, isolate assigned by line order

T1 sequence (P08164 whole entry): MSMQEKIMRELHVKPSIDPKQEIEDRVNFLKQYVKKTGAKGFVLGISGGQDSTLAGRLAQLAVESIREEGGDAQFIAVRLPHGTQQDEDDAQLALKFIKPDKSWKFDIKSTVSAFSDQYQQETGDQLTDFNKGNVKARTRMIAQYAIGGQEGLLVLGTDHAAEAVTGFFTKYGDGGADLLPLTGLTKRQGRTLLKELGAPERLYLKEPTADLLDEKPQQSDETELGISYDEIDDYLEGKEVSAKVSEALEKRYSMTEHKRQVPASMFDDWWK

Structure (SMILES): COC(=O)c1cc2cc(OCc3ccccc3)ccc2n1CCCCCCCOC(=O)Cc1ccc([N+](C)(C)C)cc1.[I-] [Compound 988]
- IC50 [1]: 10 µM
- IC50 ([1]; IC50 (μg/mL) for Inhibit. of NAD Synthetase, table of structures used in the yeast assay (Example 4)): 14.3 µM
- MIC [2]: 0.1 µg/mL
- MIC [3]: 0.15 µg/mL
- MIC [4]: 0.024 µg/mL
- LD50 at 14 days [5]: 135 mg/kg
- MFC ([6]; ATCC750, read-out: Minimum Lethal Conc. (MLC)): 1 µg/mL
- MIC ([6]; ATCC750, 24 h, read at 24 hr, read-out: Minimum Inhibitory Conc. (MIC), 24 hr.): 1 µg/mL
- MIC ([6]; ATCC750, 48 h, read at 48 hr, read-out: Minimum Inhibitory Conc. (MIC), 48 hr.): 1 µg/mL
- MFC ([7]; ATCC28707, read-out: Minimum Lethal Conc. (MLC)): 1 µg/mL
- Minimum Inhibitory Conc. (MIC), 24 hr. ([7]; read at 24 hr): 1 µg/mL
- Minimum Inhibitory Conc. (MIC), 48 hr. ([7]; read at 48 hr): 1 µg/mL
- MIC ([7]; ATCC28707, 24 h, read at 24 hr, read-out: Minimum Inhibitory Conc. (MIC), 24 hr.): 0.5 µg/mL
- MIC ([7]; ATCC28707, 48 h, read at 48 hr, read-out: Minimum Inhibitory Conc. (MIC), 48 hr.): 0.5 µg/mL
- MIC ([8]; KJP000531594, 24 h, read at 24 hr, isolate not given, assigned by line order and MLC of Table 4B, read-out: Minimum Inhibitory Conc. (MIC), 24 hr.): 1 µg/mL
- MIC ([8]; KJP000531594, 48 h, read at 48 hr, isolate assigned by line order, read-out: Minimum Inhibitory Conc. (MIC), 48 hr.): 1 µg/mL
- MFC ([8]; KJP000531594, isolate assigned by line order, read-out: Minimum Lethal Conc. (MLC)): 1 µg/mL
- MIC ([9]; LH000664533, 24 h, read at 24 hr, read-out: Minimum Inhibitory Conc. (MIC), 24 hr.): 1 µg/mL
- MIC ([9]; LH000664533, 48 h, read at 48 hr, read-out: Minimum Inhibitory Conc. (MIC), 48 hr.): 2 µg/mL
- MFC ([9]; LH000664533, read-out: Minimum Lethal Conc. (MLC)): 2 µg/mL
- MIC ([10]; Nakaseomyces glabratus, JHCBC9951635, 24 h, read at 24 hr, read-out: Minimum Inhibitory Conc. (MIC), 24 hr.): 1 µg/mL
- MIC ([10]; Nakaseomyces glabratus, JHCBC9951635, 48 h, read at 48 hr, read-out: Minimum Inhibitory Conc. (MIC), 48 hr.): 2 µg/mL
- MFC ([10]; Nakaseomyces glabratus, JHCBC9951635, read-out: Minimum Lethal Conc. (MLC)): 2 µg/mL
- Minimum Inhibitory Conc. (MIC), 24 hr. ([10]; read at 24 hr): 2 µg/mL
- MIC ([11]; ERHBC9938274, 24 h, read at 24 hr, read-out: Minimum Inhibitory Conc. (MIC), 24 hr.): 2 µg/mL
- MIC ([11]; ERHBC9938274, 48 h, read at 48 hr, read-out: Minimum Inhibitory Conc. (MIC), 48 hr.): 2 µg/mL
- MFC ([11]; ERHBC9938274, read-out: Minimum Lethal Conc. (MLC)): 2 µg/mL
- Minimum Inhibitory Conc. (MIC), 72 hr. ([12]; read at 72 hr): 2 µg/mL
- MIC ([12]; DLB1027594CNC, 48 h, read at 48 hr, read-out: Minimum Inhibitory Conc. (MIC), 48 hr.): 1 µg/mL
- MIC ([12]; DLB1027594CNC, 72 h, read at 72 hr, read-out: Minimum Inhibitory Conc. (MIC), 72 hr.): 1 µg/mL
- MFC ([12]; DLB1027594CNC, read-out: Minimum Lethal Conc. (MLC)): 4 µg/mL
- Minimum Inhibitory Conc. (MIC), 72 hr. ([13]; read at 72 hr): 2 µg/mL
- MIC ([13]; SLPBC0012854, 48 h, read at 48 hr, read-out: Minimum Inhibitory Conc. (MIC), 48 hr.): 1 µg/mL
- MIC ([13]; SLPBC0012854, 72 h, read at 72 hr, read-out: Minimum Inhibitory Conc. (MIC), 72 hr.): 1 µg/mL
- MFC ([13]; SLPBC0012854, read-out: Minimum Lethal Conc. (MLC)): 4 µg/mL
